Measured values reported in PubChem BioAssay (NCI).
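Results reflect a 48-hour exposure of cells in 96-well plates to compound at five concentrations. Abbreviation: GI50, concentration required for 50% inhibition of growth. TGI: total growth inhibition.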

How the values were obtained:
Assay in all cases: NCI tumour cell line growth inhibition, 48 h
SW-620 colon = system: SW-620 colon
COLO 205 colon = system: COLO 205 colon
NCI-H460 lung = system: NCI-H460 lung
ACHN renal = system: ACHN renal
SR leukemia = system: SR leukemia
CAKI-1 renal = system: CAKI-1 renal
SNB-75 CNS = system: SNB-75 CNS
SF-268 CNS = system: SF-268 CNS
NCI/ADR-RES ovarian = system: NCI/ADR-RES ovarian
SN12C renal = system: SN12C renal
K-562 leukemia = system: K-562 leukemia
HT29 colon = system: HT29 colon
SF-539 CNS = system: SF-539 CNS
MCF7 breast = system: MCF7 breast
OVCAR-4 ovarian = system: OVCAR-4 ovarian
OVCAR-3 ovarian = system: OVCAR-3 ovarian
MOLT-4 leukemia = system: MOLT-4 leukemia
SF-295 CNS = system: SF-295 CNS
HOP-62 NSCLC = system: HOP-62 NSCLC
SK-MEL-2 melanoma = system: SK-MEL-2 melanoma
IGROV1 ovarian = system: IGROV1 ovarian
NCI-H522 lung = system: NCI-H522 lung
LOX IMVI melanoma = system: LOX IMVI melanoma
EKVX NSCLC = system: EKVX NSCLC
HOP-92 NSCLC = system: HOP-92 NSCLC
UACC-62 melanoma = system: UACC-62 melanoma
DU-145 prostate = system: DU-145 prostate
OVCAR-8 ovarian = system: OVCAR-8 ovarian
NCI-H226 lung = system: NCI-H226 lung
HS 578T breast = system: HS 578T breast
UACC-257 melanoma = system: UACC-257 melanoma
MDA-MB-435 = system: MDA-MB-435
HCT-15 colon = system: HCT-15 colon
OVCAR-5 ovarian = system: OVCAR-5 ovarian
NCI-H23 lung = system: NCI-H23 lung
A498 renal = system: A498 renal
T-47D breast = system: T-47D breast
U251 CNS = system: U251 CNS
RPMI-8226 leukemia = system: RPMI-8226 leukemia
MALME-3M melanoma = system: MALME-3M melanoma
RXF 393 renal = system: RXF 393 renal
SNB-19 CNS = system: SNB-19 CNS
UO-31 renal = system: UO-31 renal
MDA-MB-231 breast = system: MDA-MB-231 breast
CCRF-CEM leukemia = system: CCRF-CEM leukemia
HL-60(TB) leukemia = system: HL-60(TB) leukemia
HCC-2998 colon = system: HCC-2998 colon
SK-MEL-28 melanoma = system: SK-MEL-28 melanoma
A549 NSCLC = system: A549 NSCLC
KM12 colon = system: KM12 colon
BT-549 breast = system: BT-549 breast
M14 melanoma = system: M14 melanoma
SK-MEL-5 melanoma = system: SK-MEL-5 melanoma
SK-OV-3 ovarian = system: SK-OV-3 ovarian
786-0 renal = system: 786-0 renal
TK-10 renal = system: TK-10 renal
HCT-116 colon = system: HCT-116 colon

Question: For `Cc1cc(C)c2nc3nc(C)cc(C)c3c(N)c2c1`, which GI50 (SW-620 colon) is on record?
Answer: 3.4 µM

Question: And the TGI (SW-620 colon)?
Answer: 21.4 µM

Question: And the GI50 (COLO 205 colon)?
Answer: 2.78 µM

Question: What about the TGI (COLO 205 colon) of the same compound?
Answer: 11.8 µM

Question: What about the GI50 (NCI-H460 lung) of the same compound?
Answer: 3.15 µM

Question: And the TGI (NCI-H460 lung)?
Answer: 11 µM

Question: What about the GI50 (ACHN renal) of the same compound?
Answer: 3.29 µM

Question: What about the TGI (ACHN renal) of the same compound?
Answer: 49.4 µM

Question: And the GI50 (SR leukemia)?
Answer: 2.47 µM

Question: What about the TGI (SR leukemia) of the same compound?
Answer: 13.3 µM

Question: What about the GI50 (CAKI-1 renal) of the same compound?
Answer: 1.83 µM

Question: And the TGI (CAKI-1 renal)?
Answer: 6.12 µM

Question: And the GI50 (SNB-75 CNS)?
Answer: 4.86 µM

Question: What about the TGI (SNB-75 CNS) of the same compound?
Answer: 18.3 µM

Question: And the GI50 (SF-268 CNS)?
Answer: 5.38 µM

Question: And the TGI (SF-268 CNS)?
Answer: 21.6 µM

Question: What about the GI50 (NCI/ADR-RES ovarian) of the same compound?
Answer: 6.88 µM

Question: And the TGI (NCI/ADR-RES ovarian)?
Answer: 36.9 µM

Question: What about the GI50 (SN12C renal) of the same compound?
Answer: 4.37 µM

Question: What about the TGI (SN12C renal) of the same compound?
Answer: 36.2 µM

Question: And the GI50 (K-562 leukemia)?
Answer: 3.45 µM

Question: And the TGI (K-562 leukemia)?
Answer: 15.9 µM

Question: What about the GI50 (HT29 colon) of the same compound?
Answer: 2.49 µM

Question: What about the TGI (HT29 colon) of the same compound?
Answer: 13.6 µM

Question: What about the GI50 (SF-539 CNS) of the same compound?
Answer: 4.15 µM

Question: And the TGI (SF-539 CNS)?
Answer: 14.6 µM

Question: And the GI50 (MCF7 breast)?
Answer: 3.54 µM

Question: What about the TGI (MCF7 breast) of the same compound?
Answer: 16.7 µM

Question: And the GI50 (OVCAR-4 ovarian)?
Answer: 3.63 µM

Question: And the TGI (OVCAR-4 ovarian)?
Answer: 19.8 µM

Question: And the GI50 (OVCAR-3 ovarian)?
Answer: 9.04 µM

Question: And the TGI (OVCAR-3 ovarian)?
Answer: 39.9 µM

Question: What about the GI50 (MOLT-4 leukemia) of the same compound?
Answer: 4.7 µM

Question: And the TGI (MOLT-4 leukemia)?
Answer: 26.6 µM

Question: And the GI50 (SF-295 CNS)?
Answer: 2.4 µM

Question: What about the TGI (SF-295 CNS) of the same compound?
Answer: 12 µM

Question: And the GI50 (HOP-62 NSCLC)?
Answer: 5.26 µM

Question: What about the TGI (HOP-62 NSCLC) of the same compound?
Answer: 25.7 µM

Question: And the GI50 (SK-MEL-2 melanoma)?
Answer: 6.89 µM

Question: What about the TGI (SK-MEL-2 melanoma) of the same compound?
Answer: 21.7 µM

Question: And the GI50 (IGROV1 ovarian)?
Answer: 3.64 µM

Question: And the TGI (IGROV1 ovarian)?
Answer: 28.2 µM

Question: And the GI50 (NCI-H522 lung)?
Answer: 5.46 µM

Question: And the TGI (NCI-H522 lung)?
Answer: 22.6 µM

Question: What about the GI50 (LOX IMVI melanoma) of the same compound?
Answer: 3.51 µM

Question: What about the TGI (LOX IMVI melanoma) of the same compound?
Answer: 14.9 µM

Question: What about the GI50 (EKVX NSCLC) of the same compound?
Answer: 4.76 µM

Question: What about the TGI (EKVX NSCLC) of the same compound?
Answer: 43 µM

Question: What about the GI50 (HOP-92 NSCLC) of the same compound?
Answer: 3.23 µM

Question: What about the TGI (HOP-92 NSCLC) of the same compound?
Answer: 19.7 µM

Question: And the GI50 (UACC-62 melanoma)?
Answer: 4.83 µM

Question: And the TGI (UACC-62 melanoma)?
Answer: 18.9 µM

Question: And the GI50 (DU-145 prostate)?
Answer: 4.72 µM

Question: What about the TGI (DU-145 prostate) of the same compound?
Answer: 17.9 µM

Question: And the GI50 (OVCAR-8 ovarian)?
Answer: 4.02 µM

Question: And the TGI (OVCAR-8 ovarian)?
Answer: > 100 µM

Question: What about the GI50 (NCI-H226 lung) of the same compound?
Answer: 5.4 µM

Question: And the TGI (NCI-H226 lung)?
Answer: 24.7 µM

Question: What about the GI50 (HS 578T breast) of the same compound?
Answer: 12.7 µM

Question: What about the TGI (HS 578T breast) of the same compound?
Answer: 45.2 µM

Question: And the GI50 (UACC-257 melanoma)?
Answer: 5.71 µM

Question: What about the TGI (UACC-257 melanoma) of the same compound?
Answer: 29.8 µM

Question: And the GI50 (MDA-MB-435)?
Answer: 3.53 µM

Question: And the TGI (MDA-MB-435)?
Answer: 16.6 µM

Question: What about the GI50 (HCT-15 colon) of the same compound?
Answer: 3.96 µM

Question: And the TGI (HCT-15 colon)?
Answer: 22.5 µM

Question: What about the GI50 (OVCAR-5 ovarian) of the same compound?
Answer: 4.3 µM

Question: What about the TGI (OVCAR-5 ovarian) of the same compound?
Answer: 29.5 µM

Question: What about the GI50 (NCI-H23 lung) of the same compound?
Answer: 5.29 µM

Question: What about the TGI (NCI-H23 lung) of the same compound?
Answer: 21.4 µM

Question: And the GI50 (A498 renal)?
Answer: 4.67 µM

Question: What about the TGI (A498 renal) of the same compound?
Answer: 17.8 µM

Question: What about the GI50 (T-47D breast) of the same compound?
Answer: 5.89 µM

Question: What about the TGI (T-47D breast) of the same compound?
Answer: 34.2 µM

Question: What about the GI50 (U251 CNS) of the same compound?
Answer: 4.3 µM

Question: What about the TGI (U251 CNS) of the same compound?
Answer: 26.1 µM

Question: What about the GI50 (RPMI-8226 leukemia) of the same compound?
Answer: 4.55 µM

Question: What about the TGI (RPMI-8226 leukemia) of the same compound?
Answer: 24.8 µM

Question: And the GI50 (MALME-3M melanoma)?
Answer: 4.19 µM

Question: And the TGI (MALME-3M melanoma)?
Answer: 16.6 µM

Question: And the GI50 (RXF 393 renal)?
Answer: 6.64 µM

Question: What about the TGI (RXF 393 renal) of the same compound?
Answer: 27.5 µM

Question: What about the GI50 (SNB-19 CNS) of the same compound?
Answer: 8.51 µM

Question: And the TGI (SNB-19 CNS)?
Answer: 35.9 µM

Question: What about the GI50 (UO-31 renal) of the same compound?
Answer: 2.9 µM

Question: What about the TGI (UO-31 renal) of the same compound?
Answer: 16 µM

Question: What about the GI50 (MDA-MB-231 breast) of the same compound?
Answer: 5.17 µM

Question: And the TGI (MDA-MB-231 breast)?
Answer: 28.6 µM

Question: And the GI50 (CCRF-CEM leukemia)?
Answer: 9.33 µM

Question: What about the TGI (CCRF-CEM leukemia) of the same compound?
Answer: 45.7 µM

Question: What about the GI50 (HL-60(TB) leukemia) of the same compound?
Answer: 2.74 µM

Question: What about the TGI (HL-60(TB) leukemia) of the same compound?
Answer: 12.9 µM

Question: What about the GI50 (HCC-2998 colon) of the same compound?
Answer: 9.61 µM

Question: And the TGI (HCC-2998 colon)?
Answer: 22.5 µM

Question: What about the GI50 (SK-MEL-28 melanoma) of the same compound?
Answer: 12.6 µM

Question: And the TGI (SK-MEL-28 melanoma)?
Answer: 27 µM

Question: What about the GI50 (A549 NSCLC) of the same compound?
Answer: 4.34 µM

Question: And the TGI (A549 NSCLC)?
Answer: > 100 µM

Question: And the GI50 (KM12 colon)?
Answer: 5.52 µM

Question: And the TGI (KM12 colon)?
Answer: 24 µM

Question: And the GI50 (BT-549 breast)?
Answer: 11 µM

Question: What about the TGI (BT-549 breast) of the same compound?
Answer: 31.7 µM

Question: And the GI50 (M14 melanoma)?
Answer: 4.53 µM

Question: What about the TGI (M14 melanoma) of the same compound?
Answer: 16.1 µM

Question: What about the GI50 (SK-MEL-5 melanoma) of the same compound?
Answer: 3.73 µM

Question: What about the TGI (SK-MEL-5 melanoma) of the same compound?
Answer: 14.2 µM

Question: And the GI50 (SK-OV-3 ovarian)?
Answer: 4.1 µM

Question: And the TGI (SK-OV-3 ovarian)?
Answer: 23.5 µM

Question: What about the GI50 (786-0 renal) of the same compound?
Answer: 4.07 µM

Question: What about the TGI (786-0 renal) of the same compound?
Answer: 17.4 µM

Question: And the GI50 (TK-10 renal)?
Answer: 3.34 µM

Question: And the TGI (TK-10 renal)?
Answer: 19.1 µM

Question: And the GI50 (HCT-116 colon)?
Answer: 3.12 µM

Question: And the TGI (HCT-116 colon)?
Answer: 15 µM
